# Results taken from patent EP1586565A1, “Substituted polycyclic aryl and heteroaryl pyrazinones useful for selective inhibition of the coagulation cascade” (Pharmacia Corporation, priority 1999, dated 2000).
# Target: T1, Human factor Xa (Homo sapiens, UniProt P00742)
# T1 construct: leads from XII to XIIa to XIa to IXa and to the conversion of X to Xa; purchased Enzyme Research Laboratories, South Bend IN
# Assay: Xa Assay
# Assay type: biochemical
# Settings: for IC50 or % Inhibition Factor Xa (30 µM): % inhibition at 30 µM (cells with % or %@30, bare 0)
# T1 sequence (P00742 235-488 limits assumed): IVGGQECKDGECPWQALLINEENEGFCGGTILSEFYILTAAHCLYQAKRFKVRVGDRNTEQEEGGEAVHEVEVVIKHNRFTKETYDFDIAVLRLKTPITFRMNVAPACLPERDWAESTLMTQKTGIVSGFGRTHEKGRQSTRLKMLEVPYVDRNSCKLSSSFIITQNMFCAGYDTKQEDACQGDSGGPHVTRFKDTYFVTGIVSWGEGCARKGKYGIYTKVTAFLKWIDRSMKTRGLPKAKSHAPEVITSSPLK
# T1 sequence (P00742 41-179 limits assumed): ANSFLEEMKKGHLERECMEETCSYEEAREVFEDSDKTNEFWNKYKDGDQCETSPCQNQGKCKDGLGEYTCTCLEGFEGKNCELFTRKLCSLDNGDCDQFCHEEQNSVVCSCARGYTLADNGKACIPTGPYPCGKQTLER
SMILES,IC50 or % Inhibition Factor Xa (30 µM),% Inhibition Factor Xa (100 µM) [%]
N=C(N)c1ccc(CNC(=O)Cn2c(-c3ccccc3)c(Cl)nc(NCc3cc(F)c(F)c(F)c3)c2=O)cc1 [1512-32],5%,–
N=C(N)c1ccc(CNC(=O)Cn2c(-c3ccccc3)c(Cl)nc(NCc3cc(Cl)ccc3Cl)c2=O)cc1 [1512-35],4%,–
N=C(N)c1ccc(CNC(=O)Cn2c(-c3ccccc3)c(Cl)nc(NCc3cc(F)ccc3F)c2=O)cc1 [1512-36],9%,–
N=C(N)c1ccc(CNC(=O)Cn2c(-c3ccccc3)c(Cl)nc(NCc3cc(F)cc(F)c3)c2=O)cc1 [1512-39],4%,–
N=C(N)c1ccc(CNC(=O)Cn2c(-c3ccccc3)c(Cl)nc(NCCc3cccc(C(F)(F)F)c3)c2=O)cc1 [1512-41],4%,–
N=C(N)c1ccc(CNC(=O)Cn2c(-c3ccccc3)c(Cl)nc(NCc3ccccc3OC(F)(F)F)c2=O)cc1 [1512-42],1%,–
N=C(N)c1ccc(CNC(=O)Cn2c(-c3ccccc3)c(Cl)nc(NCc3c(F)cccc3F)c2=O)cc1 [1512-43],9%,–
CN1CCCC1CCNc1nc(Cl)c(-c2ccccc2)n(CC(=O)NCc2ccc(C(=N)N)cc2)c1=O (stereo not drawn) [1512-46],10%,–
N=C(N)c1ccc(CNC(=O)Cn2c(-c3ccccc3)c(Cl)nc(NCCc3ccccn3)c2=O)cc1 [1512-47],13%,–
N=C(N)c1ccc(CNC(=O)Cn2c(-c3ccsc3)c(Cl)nc(NCc3ccccc3)c2=O)cc1 [1517-01],0%,–
C[C@@H](C(=O)NCc1ccc(C(=N)N)cc1)n1c(-c2ccccc2)c(Cl)nc(NCc2ccccc2)c1=O [1517-03],0%,–
CSCC(C(=O)NCc1ccc(C(=N)N)cc1)n1c(-c2ccccc2)c(Cl)nc(NCc2ccccc2)c1=O (stereo not drawn) [1517-04],0%,–
C[C@H](C(=O)NCc1ccc(C(=N)N)cc1)n1c(-c2ccccc2)c(Cl)nc(NCc2ccccc2)c1=O [1517-05],0%,–
N=C(N)c1ccc(CNC(=O)Cn2c(-c3c(Cl)cccc3Cl)c(Cl)nc(NCc3ccccc3)c2=O)cc1 [1517-06],0%,–
N=C(N)c1ccc(CNC(=O)Cn2c(-c3ccsc3)c(Cl)nc(NC3CCC3)c2=O)cc1 [1517-07],0%,–
C[C@@H](C(=O)NCc1ccc(C(=N)N)cc1)n1c(-c2ccccc2)c(Cl)nc(NC2CCC2)c1=O [1517-09],0%,–
CSCC(C(=O)NCc1ccc(C(=N)N)cc1)n1c(-c2ccccc2)c(Cl)nc(NC2CCC2)c1=O (stereo not drawn) [1517-10],0%,–
C[C@H](C(=O)NCc1ccc(C(=N)N)cc1)n1c(-c2ccccc2)c(Cl)nc(NC2CCC2)c1=O [1517-11],0%,–
N=C(N)c1ccc(CNC(=O)Cn2c(-c3c(Cl)cccc3Cl)c(Cl)nc(NC3CCC3)c2=O)cc1 [1517-12],0%,–
N=C(N)c1ccc(CNC(=O)Cn2c(-c3ccsc3)c(Cl)nc(NCCc3ccccc3)c2=O)cc1 [1517-13],0%,–
C[C@@H](C(=O)NCc1ccc(C(=N)N)cc1)n1c(-c2ccccc2)c(Cl)nc(NCCc2ccccc2)c1=O [1517-15],0%,–
CSCC(C(=O)NCc1ccc(C(=N)N)cc1)n1c(-c2ccccc2)c(Cl)nc(NCCc2ccccc2)c1=O (stereo not drawn) [1517-16],0%,–
C[C@H](C(=O)NCc1ccc(C(=N)N)cc1)n1c(-c2ccccc2)c(Cl)nc(NCCc2ccccc2)c1=O [1517-17],0%,–

SMILES,IC50 or % Inhibition Factor Xa (30 µM),% Inhibition Factor Xa (100 µM) [%]
N=C(N)c1ccc(CNC(=O)Cn2c(-c3c(Cl)cccc3Cl)c(Cl)nc(NCCc3ccccc3)c2=O)cc1 [1517-18],0%,–
N=C(N)c1ccc(CNC(=O)Cn2c(-c3ccsc3)c(Cl)nc(NCCc3cccc(Cl)c3)c2=O)cc1 [1517-19],0%,–
C[C@H](C(=O)NCc1ccc(C(=N)N)cc1)n1c(-c2ccccc2)c(Cl)nc(NCCc2cccc(Cl)c2)c1=O [1517-23],0%,–
N=C(N)c1ccc(CNC(=O)Cn2c(-c3c(Cl)cccc3Cl)c(Cl)nc(NCCc3cccc(Cl)c3)c2=O)cc1 [1517-24],0%,–
N=C(N)c1ccc(CNC(=O)Cn2c(-c3ccccc3)c(Cl)nc(NC3CCCCC3)c2=O)cc1 [1517-25],0%,–
CCCC(CCC)Nc1nc(Cl)c(-c2ccccc2)n(CC(=O)NCc2ccc(C(=N)N)cc2)c1=O [1517-26],0%,–
CC(C)N(C)c1nc(Cl)c(-c2ccccc2)n(CC(=O)NCc2ccc(C(=N)N)cc2)c1=O [1517-31],0%,–
CCCNc1nc(Cl)c(-c2ccccc2)n(CC(=O)NCc2ccc(C(=N)N)cc2)c1=O [1517-33],0%,–
C[Si](C)(C)CNc1nc(Cl)c(-c2ccccc2)n(CC(=O)NCc2ccc(C(=N)N)cc2)c1=O [1517-36],0%,–
CC(C)CCNc1nc(Cl)c(-c2ccccc2)n(CC(=O)NCc2ccc(C(=N)N)cc2)c1=O [1517-40],0%,–
CC(C)(C)CCNc1nc(Cl)c(-c2ccccc2)n(CC(=O)NCc2ccc(C(=N)N)cc2)c1=O [1517-41],0%,–
CCCCCNc1nc(Cl)c(-c2ccccc2)n(CC(=O)NCc2ccc(C(=N)N)cc2)c1=O [1517-48],0%,–
N=C(N)c1ccc(CNC(=O)Cn2c(Cc3ccccc3)c(Cl)nc(NCCc3ccccc3)c2=O)cc1 [Example 20],6%@30,–
N=C(N)NC/C=C\CNC(=O)Cn1c(-c2ccccc2)cnc(NCCc2ccccc2)c1=O [Example 37],0%,–
Nc1n[nH]c2ccc(CNC(=O)Cn3c(-c4ccccc4)cnc(NCCc4ccccc4)c3=O)cc12 [Example 38],22%,–
Nc1n[nH]c2cc(CNC(=O)Cn3c(-c4ccccc4)cnc(NCCc4ccccc4)c3=O)ccc12 [Example 39],0%,–
N=C(N)c1ccc(CNC(=O)Cn2c(-c3cccc(N)c3)c(Cl)nc(NC3CCC3)c2=O)cc1F [Example 40],0%,–
CC(C)Nc1nc(Cl)c(-c2cccc(N)c2)n(CC(=O)NCc2ccc(C(=N)N)c(F)c2)c1=O [Example 42],0%,–
CC(C)Nc1ncc(-c2cccc(N)c2)n(CC(=O)NCc2ccc(C(=N)N)c(F)c2)c1=O [Example 43],0%,–
CC(C)Nc1nc(Cl)c(-c2cccc(N)c2)n(CC(=O)NCCc2ccc(C(=N)N)cc2)c1=O [Example 62],10%,–
COC(=O)c1cccc(-c2c(Cl)nc(NC(C)C)c(=O)n2CC(=O)NCc2ccc(C(=N)N)cc2)c1 [Example 64],19%,–
CC(C)Nc1nc(Cl)c(-c2cccc(C(=O)O)c2)n(CC(=O)NCc2ccc(C(=N)N)cc2)c1=O [Example 65],12%,–
N=C(N)c1ccc(CNC(=O)Cn2c(-c3ccccc3O)c(Cl)nc(NC3CCC3)c2=O)cc1 [Example 66],0%,–

# The remaining lines, values ahead:
IC50 or % Inhibition Factor Xa (30 µM),% Inhibition Factor Xa (100 µM) [%],SMILES
–,1,O=C(Cn1c(-c2ccc(Cl)cc2)c(Cl)nc(NCCc2ccc(Cl)cc2)c1=O)NCCc1ccncc1 [Example E-0020]
–,0,O=C(Cn1c(-c2ccc(Cl)cc2)c(Cl)nc(NCc2ccccc2)c1=O)NCCc1ccncc1 [Example E-0025]
–,0,O=C(Cn1c(-c2ccc(Cl)cc2)c(Cl)nc(NCCc2cccc(Cl)c2)c1=O)NCCc1ccncc1 [Example E-0027]
–,0,O=C(Cn1c(-c2ccc(Cl)cc2)c(Cl)nc(NCCc2ccc(Cl)cc2)c1=O)NCCc1ccncc1 [Example E-0028]
–,0,O=C(Cn1c(-c2ccc(Cl)cc2)c(Cl)nc(NCCc2cccnc2)c1=O)NCCc1ccncc1 [Example E-0029]
–,0,O=C(Cn1c(-c2ccc(Cl)cc2)c(Cl)nc(NCCN2CCOCC2)c1=O)NCCc1ccncc1 [Example E-0031]
–,0,O=C(Cn1c(-c2ccc(Cl)cc2)c(Cl)nc(NCc2ccncc2)c1=O)NCCc1ccncc1 [Example E-0032]
–,0,COc1ccc(-c2c(Cl)nc(NCCc3cccc(Cl)c3)c(=O)n2CC(=O)NCCc2ccncc2)cc1 [Example E-0035]
–,0,O=C(Cn1c(-c2ccc(-c3ccccc3)cc2)c(Cl)nc(NCCc2ccccc2)c1=O)NCCc1ccncc1 [Example E-0050]
–,4,O=C(Cn1c(-c2cccc(Cl)c2)c(Cl)nc(NCCc2cccc(Cl)c2)c1=O)NCCc1cccnc1 [Example E-0080]
–,3,O=C(Cn1c(-c2cccc(Cl)c2)c(Cl)nc(NCCc2ccc(Cl)cc2)c1=O)NCCc1cccnc1 [Example E-0083]
–,0,O=C(Cn1c(-c2cccc(Cl)c2)c(Cl)nc(NCc2ccccc2)c1=O)NCCc1ccncc1 [Example E-0085]
–,4,O=C(Cn1c(-c2cccc(Cl)c2)c(Cl)nc(NCc2ccccc2)c1=O)NCCc1cccnc1 [Example E-0086]
–,4,O=C(Cn1c(-c2cccc(Cl)c2)c(Cl)nc(NCCc2ccccc2)c1=O)NCCc1cccnc1 [Example E-0089]
–,3,O=C(Cn1c(-c2cccc(Cl)c2)c(Cl)nc(NCCc2cccc(Cl)c2)c1=O)NCCc1cccnc1 [Example E-0092]
–,4,O=C(Cn1c(-c2cccc(Cl)c2)c(Cl)nc(NCCc2ccc(Cl)cc2)c1=O)NCCc1cccnc1 [Example E-0095]
–,6,COc1ccc(-c2c(Cl)nc(NCCc3ccccc3)c(=O)n2CC(=O)NCCc2ccncc2)cc1 [Example E-0100]
–,3,COc1ccc(-c2c(Cl)nc(NCCc3cccc(Cl)c3)c(=O)n2CC(=O)NCCc2ccncc2)cc1 [Example E-0103]
–,3,COc1ccc(-c2c(Cl)nc(NCCc3ccc(Cl)cc3)c(=O)n2CC(=O)NCCc2ccncc2)cc1 [Example E-0106]
–,3,O=C(Cn1c(-c2ccc(-c3ccccc3)cc2)c(Cl)nc(NCc2ccccc2)c1=O)NCCc1ccncc1 [Example E-0109]
